ChEMBL document CHEMBL1201862, “PubChem BioAssay data set” (2004)
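In this assay, cells in 96-well plates receive the compound at five concentrations for 48 hours. Endpoints are linearly interpolated between the surrounding concentrations. GI50 = concentration required for 50% inhibition of growth.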 Activity calls are given as the source filed them. Cut-off read from the data, not from the text of the source: active = GI50 up to about 1.1 µM and inactive = higher.

Key:
Experiment in all cases: DTP human tumour cell line panel, 48 h
CCRF-CEM = system: CCRF-CEM
HCT-116 = system: HCT-116
HOP-62 = system: HOP-62
KM12 = system: KM12
NCI-H226 = system: NCI-H226
NCI-H522 = system: NCI-H522
OVCAR-8 = system: OVCAR-8
SF-295 = system: SF-295
SK-MEL-2 = system: SK-MEL-2
SNB-19 = system: SNB-19
UACC-257 = system: UACC-257
UACC-62 = system: UACC-62
UO-31 = system: UO-31
HCC 2998 = system: HCC 2998
HOP-92 = system: HOP-92
OVCAR-4 = system: OVCAR-4
CAKI-1 = system: CAKI-1

Measured: GI50

COc1nc2c(OC)cccc2c(OC)c1C=O
inactive: CCRF-CEM > 100 µM | HCT-116 76.7 µM | HOP-62 22.1 µM | KM12 75.5 µM | NCI-H226 > 100 µM | NCI-H522 > 100 µM | OVCAR-8 > 100 µM | SF-295 > 100 µM | SK-MEL-2 > 100 µM | SNB-19 > 100 µM | UACC-257 > 100 µM | UACC-62 > 100 µM | UO-31 > 100 µM

CC(C)(C)CC(C)(C)c1cc2c(O)c(c1)Cc1cc(C(C)(C)CC(C)(C)C)cc(c1O)Cc1cc(C(C)(C)CC(C)(C)C)cc(c1O)Cc1cc(C(C)(C)CC(C)(C)C)cc(c1O)Cc1cc(C(C)(C)CC(C)(C)C)cc(c1O)C2
inactive: CCRF-CEM > 100 µM | HCC 2998 > 100 µM | HCT-116 > 100 µM | HOP-62 > 100 µM | HOP-92 > 100 µM | KM12 > 100 µM | NCI-H522 > 100 µM | OVCAR-4 > 100 µM | OVCAR-8 > 100 µM | SF-295 > 100 µM | SK-MEL-2 > 100 µM | SNB-19 > 100 µM | UACC-257 > 100 µM | UACC-62 > 100 µM | UO-31 > 100 µM

Cc1ccc(S(=O)(=O)O/N=C2\CCC\C2=C/c2ccccc2)cc1
inactive: CAKI-1 17.6 µM | CCRF-CEM 58.6 µM | HCC 2998 17.7 µM | HCT-116 12.4 µM | HOP-62 36.6 µM | HOP-92 15.7 µM | KM12 17.6 µM | NCI-H226 18.5 µM | NCI-H522 18.9 µM | OVCAR-4 23.3 µM | OVCAR-8 29 µM | SF-295 22.8 µM | SK-MEL-2 16.9 µM | SNB-19 30.5 µM | UACC-257 17.1 µM | UACC-62 8.45 µM | UO-31 19.9 µM

COC(=O)C12C3C=CC(O3)C1C1C=CC2O1 (stereo not drawn)
inactive: CCRF-CEM > 100 µM | HCC 2998 > 100 µM | HOP-92 > 100 µM | KM12 > 100 µM | NCI-H226 > 100 µM | NCI-H522 > 100 µM | OVCAR-8 > 100 µM | SF-295 > 100 µM | SK-MEL-2 > 100 µM | SNB-19 > 100 µM | UACC-257 > 100 µM | UO-31 > 100 µM

Nc1c(Br)c(=O)[nH]c(=O)n1COCCO
inactive: CAKI-1 > 100 µM | CCRF-CEM > 100 µM | HCC 2998 > 100 µM | HCT-116 > 100 µM | HOP-62 > 100 µM | HOP-92 > 100 µM | KM12 > 100 µM | NCI-H522 > 100 µM | OVCAR-4 > 100 µM | OVCAR-8 > 100 µM | SF-295 > 100 µM | SNB-19 > 100 µM | UACC-257 > 100 µM | UACC-62 > 100 µM | UO-31 > 100 µM

O=c1[nH]c(=O)n(C2CC(O)C(CO)O2)cc1C#Cc1c(F)c(F)c(F)c(F)c1F (stereo not drawn)
inactive: CAKI-1 > 100 µM | CCRF-CEM > 100 µM | HCC 2998 > 100 µM | HCT-116 > 100 µM | HOP-62 > 100 µM | KM12 > 100 µM | NCI-H226 > 100 µM | NCI-H522 > 10 µM | OVCAR-4 > 100 µM | OVCAR-8 > 100 µM | SF-295 > 100 µM | SK-MEL-2 > 100 µM | SNB-19 > 100 µM | UACC-257 > 100 µM | UACC-62 > 100 µM | UO-31 > 100 µM

Cc1ccc(C)c(N2C(=O)C(=O)C(c3nc4ccccc4s3)/C(=N/N)C2=O)c1 (stereo not drawn)
inactive: CAKI-1 > 100 µM | CCRF-CEM > 100 µM | HCC 2998 > 100 µM | HCT-116 > 34.4 µM | HOP-62 > 100 µM | HOP-92 > 100 µM | KM12 > 100 µM | NCI-H226 > 100 µM | NCI-H522 > 100 µM | OVCAR-4 > 46.9 µM | SK-MEL-2 > 100 µM | SNB-19 > 100 µM | UACC-257 > 27.9 µM | UACC-62 > 100 µM | UO-31 > 100 µM
